Source: article PMC8429728, “TNK1 is a ubiquitin-binding and 14-3-3-regulated kinase that can be targeted to block tumor growth” (Nature Communications, 2021)
Read-outs that look alike come from different tables or passages of the source.

Legend:
Experiment in all cases: biochemical
Parameters in all cases: Reaction Biology 371-kinase panel at Km ATP, per cent enzyme activity relative to DMSO, single dose in duplicate
c-MET = c-MET (Homo sapiens, UniProt P08581); conditions: duplicate measurements, Km ATP
How it was run: (§1)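 Compound screened at 300 nM in vitro across a 371-kinase panel. Enzyme activity expressed as % of DMSO controls. IC50 values came from sigmoidal variable-slope dose-response fits with the bottom fixed at 0.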

CAMKK2 = CAMKK2 (Homo sapiens, UniProt Q96RR4); conditions: duplicate measurements, Km ATP
How it was run: as §1

MLK1/MAP3K9 = MLK1/MAP3K9 (Homo sapiens, UniProt P80192); conditions: duplicate measurements, Km ATP
Sequence of MLK1/MAP3K9 (P80192 whole entry): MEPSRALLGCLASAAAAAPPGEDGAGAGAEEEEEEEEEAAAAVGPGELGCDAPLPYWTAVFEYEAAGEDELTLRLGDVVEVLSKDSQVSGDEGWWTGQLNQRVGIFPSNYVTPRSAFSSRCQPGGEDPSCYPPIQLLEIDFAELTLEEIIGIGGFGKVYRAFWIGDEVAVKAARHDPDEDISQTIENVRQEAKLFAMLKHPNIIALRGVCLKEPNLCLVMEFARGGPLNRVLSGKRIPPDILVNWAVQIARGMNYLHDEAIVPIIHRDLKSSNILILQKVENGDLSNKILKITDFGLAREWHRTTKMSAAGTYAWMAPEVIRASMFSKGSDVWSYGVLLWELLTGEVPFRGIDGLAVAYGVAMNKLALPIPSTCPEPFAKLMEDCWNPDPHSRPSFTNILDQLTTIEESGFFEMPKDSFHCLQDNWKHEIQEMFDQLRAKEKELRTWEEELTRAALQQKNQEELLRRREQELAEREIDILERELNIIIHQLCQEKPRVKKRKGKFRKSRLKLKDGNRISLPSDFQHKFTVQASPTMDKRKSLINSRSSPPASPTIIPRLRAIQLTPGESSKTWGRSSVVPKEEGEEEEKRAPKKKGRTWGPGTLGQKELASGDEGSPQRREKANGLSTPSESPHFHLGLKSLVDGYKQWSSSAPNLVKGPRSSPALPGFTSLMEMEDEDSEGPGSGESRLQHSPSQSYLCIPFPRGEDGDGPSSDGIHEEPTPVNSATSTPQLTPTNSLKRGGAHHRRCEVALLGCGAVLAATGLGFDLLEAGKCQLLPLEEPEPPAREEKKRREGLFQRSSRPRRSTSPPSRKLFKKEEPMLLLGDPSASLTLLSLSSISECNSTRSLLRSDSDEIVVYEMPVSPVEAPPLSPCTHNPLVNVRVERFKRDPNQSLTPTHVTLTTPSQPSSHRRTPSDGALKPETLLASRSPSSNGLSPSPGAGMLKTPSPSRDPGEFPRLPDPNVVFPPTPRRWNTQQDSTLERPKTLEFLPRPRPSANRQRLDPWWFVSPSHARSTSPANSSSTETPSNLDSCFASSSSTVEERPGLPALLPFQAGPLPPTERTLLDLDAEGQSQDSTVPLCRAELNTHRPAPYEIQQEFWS
How it was run: as §1

Aurora B = target: T1, Aurora B (Homo sapiens, UniProt Q96GD4); conditions: duplicate measurements, Km ATP
T1 construct: gene AURKB
T1 sequence (Q96GD4 whole entry): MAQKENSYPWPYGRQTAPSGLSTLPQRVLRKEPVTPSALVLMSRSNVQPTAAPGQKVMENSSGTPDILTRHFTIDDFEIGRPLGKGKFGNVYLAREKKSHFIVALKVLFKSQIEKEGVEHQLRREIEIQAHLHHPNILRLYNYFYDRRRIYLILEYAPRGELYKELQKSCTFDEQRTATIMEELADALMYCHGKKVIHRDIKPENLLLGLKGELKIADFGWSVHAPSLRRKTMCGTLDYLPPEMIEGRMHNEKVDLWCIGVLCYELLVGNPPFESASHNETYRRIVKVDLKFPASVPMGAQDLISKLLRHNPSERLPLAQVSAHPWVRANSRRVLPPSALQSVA
How it was run: as §1

EPHA6 = EPHA6 (Homo sapiens, UniProt Q9UF33); conditions: duplicate measurements, Km ATP
How it was run: as §1

Aurora A = target: T2, Aurora A (Homo sapiens, UniProt O14965); conditions: duplicate measurements, Km ATP
T2 construct: gene AURKA
T2 sequence (O14965 1-403): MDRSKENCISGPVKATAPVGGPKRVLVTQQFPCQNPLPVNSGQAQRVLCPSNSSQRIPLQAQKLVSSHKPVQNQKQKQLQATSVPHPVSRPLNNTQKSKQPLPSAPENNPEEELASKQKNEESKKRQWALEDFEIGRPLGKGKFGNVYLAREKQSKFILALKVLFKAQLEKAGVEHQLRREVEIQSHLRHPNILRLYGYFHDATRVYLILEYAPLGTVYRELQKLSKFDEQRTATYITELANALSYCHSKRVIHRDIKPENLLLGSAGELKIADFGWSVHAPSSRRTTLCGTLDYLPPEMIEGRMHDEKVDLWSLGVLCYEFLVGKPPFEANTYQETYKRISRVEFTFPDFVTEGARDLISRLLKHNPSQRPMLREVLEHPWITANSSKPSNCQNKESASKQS
How it was run: as §1

MEK1 = target: T3, MEK1 (Homo sapiens, UniProt Q02750); conditions: duplicate measurements, Km ATP
T3 construct: gene MAP2K1
How it was run: as §1

PAK4 = PAK4 (Homo sapiens, UniProt O96013); conditions: duplicate measurements, Km ATP
Sequence of PAK4 (O96013 whole entry): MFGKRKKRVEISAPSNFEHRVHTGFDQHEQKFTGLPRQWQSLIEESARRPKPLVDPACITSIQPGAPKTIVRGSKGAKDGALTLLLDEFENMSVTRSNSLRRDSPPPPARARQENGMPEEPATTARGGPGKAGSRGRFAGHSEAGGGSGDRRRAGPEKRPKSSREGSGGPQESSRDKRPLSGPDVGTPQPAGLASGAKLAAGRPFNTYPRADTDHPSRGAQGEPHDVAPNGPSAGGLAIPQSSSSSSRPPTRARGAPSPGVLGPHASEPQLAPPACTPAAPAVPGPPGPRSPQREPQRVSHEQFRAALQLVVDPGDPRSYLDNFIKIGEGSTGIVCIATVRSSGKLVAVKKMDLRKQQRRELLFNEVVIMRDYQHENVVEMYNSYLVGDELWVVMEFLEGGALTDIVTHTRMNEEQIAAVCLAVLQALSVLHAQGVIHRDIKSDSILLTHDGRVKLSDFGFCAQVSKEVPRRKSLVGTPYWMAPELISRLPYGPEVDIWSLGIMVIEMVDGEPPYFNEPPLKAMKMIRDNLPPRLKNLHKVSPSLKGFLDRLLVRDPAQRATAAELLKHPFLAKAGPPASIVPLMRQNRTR
How it was run: as §1

MYO3b = MYO3b (Homo sapiens, UniProt Q8WXR4); conditions: duplicate measurements, Km ATP
Sequence of MYO3b (Q8WXR4 whole entry): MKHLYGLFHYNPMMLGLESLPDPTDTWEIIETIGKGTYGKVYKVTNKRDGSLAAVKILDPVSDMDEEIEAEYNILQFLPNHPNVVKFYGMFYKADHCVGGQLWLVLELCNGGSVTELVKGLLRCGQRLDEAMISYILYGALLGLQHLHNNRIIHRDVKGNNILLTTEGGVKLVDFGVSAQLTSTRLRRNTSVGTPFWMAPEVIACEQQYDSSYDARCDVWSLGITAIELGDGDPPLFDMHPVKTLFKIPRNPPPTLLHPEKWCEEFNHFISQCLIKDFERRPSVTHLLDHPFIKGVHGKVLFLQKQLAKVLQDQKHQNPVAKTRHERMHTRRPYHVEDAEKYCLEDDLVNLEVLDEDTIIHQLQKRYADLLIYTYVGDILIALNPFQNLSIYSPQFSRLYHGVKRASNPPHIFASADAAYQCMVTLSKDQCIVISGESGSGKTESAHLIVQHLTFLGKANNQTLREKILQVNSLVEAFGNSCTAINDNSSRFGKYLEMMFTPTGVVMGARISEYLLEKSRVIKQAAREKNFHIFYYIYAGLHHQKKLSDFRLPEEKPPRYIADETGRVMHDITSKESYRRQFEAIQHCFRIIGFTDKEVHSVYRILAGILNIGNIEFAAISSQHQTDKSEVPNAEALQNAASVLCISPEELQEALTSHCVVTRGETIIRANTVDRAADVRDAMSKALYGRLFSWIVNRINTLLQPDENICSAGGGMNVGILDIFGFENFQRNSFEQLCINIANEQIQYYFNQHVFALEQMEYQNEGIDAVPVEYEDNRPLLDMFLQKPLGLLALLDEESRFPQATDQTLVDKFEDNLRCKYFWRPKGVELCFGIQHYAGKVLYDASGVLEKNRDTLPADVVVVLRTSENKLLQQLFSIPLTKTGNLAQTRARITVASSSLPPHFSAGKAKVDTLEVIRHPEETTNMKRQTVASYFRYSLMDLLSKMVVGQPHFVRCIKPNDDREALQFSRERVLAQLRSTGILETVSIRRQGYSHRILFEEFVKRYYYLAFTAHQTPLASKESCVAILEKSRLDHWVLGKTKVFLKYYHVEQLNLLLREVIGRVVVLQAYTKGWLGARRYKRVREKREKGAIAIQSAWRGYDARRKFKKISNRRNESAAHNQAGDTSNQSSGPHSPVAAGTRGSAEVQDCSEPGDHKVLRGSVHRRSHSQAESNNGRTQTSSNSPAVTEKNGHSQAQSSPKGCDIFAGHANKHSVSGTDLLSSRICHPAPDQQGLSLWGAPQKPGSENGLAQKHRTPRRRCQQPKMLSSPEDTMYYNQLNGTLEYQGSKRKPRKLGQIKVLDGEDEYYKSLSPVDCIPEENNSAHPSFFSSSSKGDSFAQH
How it was run: as §1

ALK5/TGFBR1 = ALK5/TGFBR1 (Homo sapiens, UniProt P36897); conditions: duplicate measurements, Km ATP
How it was run: as §1

ABL2/ARG = ABL2/ARG (Homo sapiens, UniProt P42684); conditions: duplicate measurements, Km ATP
Sequence of ABL2/ARG (P42684 whole entry): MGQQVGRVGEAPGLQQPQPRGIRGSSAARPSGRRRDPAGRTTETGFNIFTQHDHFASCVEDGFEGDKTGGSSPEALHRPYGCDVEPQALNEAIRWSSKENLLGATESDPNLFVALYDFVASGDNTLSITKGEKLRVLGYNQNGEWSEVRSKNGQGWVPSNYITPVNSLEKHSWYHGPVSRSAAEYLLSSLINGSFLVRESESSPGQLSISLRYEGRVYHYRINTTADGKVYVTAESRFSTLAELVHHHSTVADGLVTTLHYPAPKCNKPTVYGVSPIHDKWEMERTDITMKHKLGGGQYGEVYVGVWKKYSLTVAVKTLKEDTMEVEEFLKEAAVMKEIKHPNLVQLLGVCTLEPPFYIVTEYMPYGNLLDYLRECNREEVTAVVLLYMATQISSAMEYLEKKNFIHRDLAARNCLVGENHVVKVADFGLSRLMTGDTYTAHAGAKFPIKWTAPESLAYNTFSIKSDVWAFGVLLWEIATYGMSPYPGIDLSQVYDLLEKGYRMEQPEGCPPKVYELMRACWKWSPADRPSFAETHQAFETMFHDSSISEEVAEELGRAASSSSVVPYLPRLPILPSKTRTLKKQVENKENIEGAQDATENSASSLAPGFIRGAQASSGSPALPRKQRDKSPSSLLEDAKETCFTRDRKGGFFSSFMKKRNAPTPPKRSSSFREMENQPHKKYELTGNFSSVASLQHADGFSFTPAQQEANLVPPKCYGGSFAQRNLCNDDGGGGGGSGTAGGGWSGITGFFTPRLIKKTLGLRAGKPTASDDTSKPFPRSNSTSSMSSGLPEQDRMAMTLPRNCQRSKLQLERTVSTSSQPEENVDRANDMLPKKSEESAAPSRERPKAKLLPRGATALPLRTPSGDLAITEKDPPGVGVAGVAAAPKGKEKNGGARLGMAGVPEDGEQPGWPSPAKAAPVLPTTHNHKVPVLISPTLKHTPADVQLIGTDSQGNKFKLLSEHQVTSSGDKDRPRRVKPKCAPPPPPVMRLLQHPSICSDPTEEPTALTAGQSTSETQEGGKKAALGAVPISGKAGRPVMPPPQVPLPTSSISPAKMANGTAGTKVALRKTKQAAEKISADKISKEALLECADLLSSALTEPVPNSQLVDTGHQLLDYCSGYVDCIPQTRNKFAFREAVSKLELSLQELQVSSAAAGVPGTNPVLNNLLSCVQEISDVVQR
How it was run: as §1

P38g = target: T4, P38g (Homo sapiens, UniProt P53778); conditions: duplicate measurements, Km ATP
T4 construct: gene MAPK12
T4 sequence (P53778 whole entry): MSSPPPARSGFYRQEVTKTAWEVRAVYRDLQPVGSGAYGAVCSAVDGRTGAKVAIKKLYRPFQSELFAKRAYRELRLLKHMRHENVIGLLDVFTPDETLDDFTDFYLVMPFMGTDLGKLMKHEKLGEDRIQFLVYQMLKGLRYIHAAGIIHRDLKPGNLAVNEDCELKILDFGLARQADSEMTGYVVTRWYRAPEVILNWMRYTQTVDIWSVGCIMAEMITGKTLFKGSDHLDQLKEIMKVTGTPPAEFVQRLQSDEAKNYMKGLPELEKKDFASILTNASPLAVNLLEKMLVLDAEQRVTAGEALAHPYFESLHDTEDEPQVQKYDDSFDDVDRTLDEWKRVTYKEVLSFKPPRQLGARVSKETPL
How it was run: as §1

CDK1/cyclin B = CDK1/cyclin B (Homo sapiens, UniProt P06493); conditions: duplicate measurements, Km ATP; read-out: % Enzyme Activity (relative to DMSO controls) / TP-0005801 (0.3µM) / Data 1
How it was run: as §1

MLK3/MAP3K11 = MLK3/MAP3K11 (Homo sapiens, UniProt Q16584); conditions: duplicate measurements, Km ATP
How it was run: as §1

PKCb1 = target: T5, PKCb1 (Homo sapiens, UniProt P05771); conditions: duplicate measurements, Km ATP
T5 construct: gene PRKCB; isoform beta I
How it was run: as §1

GRK2 = GRK2 (Homo sapiens, UniProt P25098); conditions: duplicate measurements, Km ATP
How it was run: as §1

CAMK2d = CAMK2d (Homo sapiens, UniProt Q13557); conditions: duplicate measurements, Km ATP
How it was run: as §1

[1] = read-out: % Enzyme Activity (relative to DMSO controls) / TP-0005801 (0.3µM) / Data 1
[2] = read-out: % Enzyme Activity (relative to DMSO controls) / TP-0005801 (0.3µM) / Data 2

Question: Which remaining activity at 0.3 µM (c-MET; [1]) does the source give for `COc1cc(N2CCN(C)CC2)c(C)cc1Nc1ncc(Br)c(Nc2cccnc2N(C)C)n1` [TP-5801] here?
Answer: Its remaining activity at 0.3 µM is 104%.

Question: And the remaining activity at 0.3 µM (c-MET; [2])?
Answer: Its remaining activity at 0.3 µM is 102%.

Question: What about the remaining activity at 0.3 µM (CAMKK2; [1]) of the same compound?
Answer: Its remaining activity at 0.3 µM is 31.9%.

Question: And the remaining activity at 0.3 µM (CAMKK2; [2])?
Answer: The remaining activity at 0.3 µM was 30.2%.

Question: And the remaining activity at 0.3 µM (MLK1/MAP3K9; [1])?
Answer: The remaining activity at 0.3 µM was 77.2%.

Question: And the remaining activity at 0.3 µM (MLK1/MAP3K9; [2])?
Answer: Its remaining activity at 0.3 µM is 76.6%.

Question: And the remaining activity at 0.3 µM (Aurora B; [1])?
Answer: Its remaining activity at 0.3 µM is 86.7%.

Question: And the remaining activity at 0.3 µM (Aurora B; [2])?
Answer: The remaining activity at 0.3 µM was 83.9%.

Question: What about the remaining activity at 0.3 µM (EPHA6; [1]) of the same compound?
Answer: The remaining activity at 0.3 µM was 103%.

Question: What about the remaining activity at 0.3 µM (EPHA6; [2]) of the same compound?
Answer: Its remaining activity at 0.3 µM is 98.6%.

Question: And the remaining activity at 0.3 µM (Aurora A; [1])?
Answer: The remaining activity at 0.3 µM was 101%.

Question: And the remaining activity at 0.3 µM (Aurora A; [2])?
Answer: Its remaining activity at 0.3 µM is 99.6%.

Question: And the remaining activity at 0.3 µM (MEK1; [1])?
Answer: Its remaining activity at 0.3 µM is 95.7%.

Question: What about the remaining activity at 0.3 µM (MEK1; [2]) of the same compound?
Answer: The remaining activity at 0.3 µM was 95.5%.

Question: And the remaining activity at 0.3 µM (PAK4; [1])?
Answer: The remaining activity at 0.3 µM was 59.4%.

Question: What about the remaining activity at 0.3 µM (PAK4; [2]) of the same compound?
Answer: The remaining activity at 0.3 µM was 54.7%.

Question: What about the remaining activity at 0.3 µM (MYO3b; [1]) of the same compound?
Answer: Its remaining activity at 0.3 µM is 57.7%.

Question: What about the remaining activity at 0.3 µM (MYO3b; [2]) of the same compound?
Answer: Its remaining activity at 0.3 µM is 56.8%.

Question: And the remaining activity at 0.3 µM (ALK5/TGFBR1; [1])?
Answer: The remaining activity at 0.3 µM was 88.1%.

Question: What about the remaining activity at 0.3 µM (ALK5/TGFBR1; [2]) of the same compound?
Answer: Its remaining activity at 0.3 µM is 88%.

Question: And the remaining activity at 0.3 µM (ABL2/ARG; [1])?
Answer: The remaining activity at 0.3 µM was 93.2%.

Question: And the remaining activity at 0.3 µM (ABL2/ARG; [2])?
Answer: Its remaining activity at 0.3 µM is 91.6%.

Question: What about the remaining activity at 0.3 µM (P38g; [1]) of the same compound?
Answer: The remaining activity at 0.3 µM was 104%.

Question: What about the remaining activity at 0.3 µM (P38g; [2]) of the same compound?
Answer: Its remaining activity at 0.3 µM is 102%.

Question: What about the remaining activity at 0.3 µM (CDK1/cyclin B) of the same compound?
Answer: The remaining activity at 0.3 µM was 103%.

Question: What about the remaining activity at 0.3 µM (MLK3/MAP3K11; [1]) of the same compound?
Answer: Its remaining activity at 0.3 µM is 89.5%.

Question: And the remaining activity at 0.3 µM (MLK3/MAP3K11; [2])?
Answer: Its remaining activity at 0.3 µM is 89.3%.

Question: What about the remaining activity at 0.3 µM (PKCb1; [1]) of the same compound?
Answer: The remaining activity at 0.3 µM was 90.9%.

Question: And the remaining activity at 0.3 µM (PKCb1; [2])?
Answer: Its remaining activity at 0.3 µM is 90.2%.

Question: And the remaining activity at 0.3 µM (GRK2; [1])?
Answer: The remaining activity at 0.3 µM was 93%.

Question: And the remaining activity at 0.3 µM (GRK2; [2])?
Answer: The remaining activity at 0.3 µM was 91.7%.

Question: And the remaining activity at 0.3 µM (CAMK2d; [1])?
Answer: The remaining activity at 0.3 µM was 4.74%.

Question: What about the remaining activity at 0.3 µM (CAMK2d; [2]) of the same compound?
Answer: The remaining activity at 0.3 µM was 4.45%.
